Entries after “also recorded” stand apart in the source; their conditions may differ.
Tests used:
Type in all cases: biochemical
[1] = biological target: T1, human 9cRDH (h9cRDH) (Homo sapiens, UniProt Q92781); experiment: Retinol isomer oxidation by recombinant human 9cRDH (substrate and cofactor specificity); details: for h9cRDH specific activity, retinol oxidation: substrate 10 μM, 15 min, 150–180 μg protein/assay, NAD+
T1 sequence (Q92781 1-318): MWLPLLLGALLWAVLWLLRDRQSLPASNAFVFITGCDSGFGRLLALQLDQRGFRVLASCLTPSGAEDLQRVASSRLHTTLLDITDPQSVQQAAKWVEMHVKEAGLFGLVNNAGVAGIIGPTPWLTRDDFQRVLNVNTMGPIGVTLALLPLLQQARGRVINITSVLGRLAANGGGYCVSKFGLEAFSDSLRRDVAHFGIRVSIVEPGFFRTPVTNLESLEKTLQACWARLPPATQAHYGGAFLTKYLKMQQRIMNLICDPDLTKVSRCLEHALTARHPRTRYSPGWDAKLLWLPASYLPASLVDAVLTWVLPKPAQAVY
Method: Enzymatic Assay of Retinol Dehydrogenase Activity. Transfected CHO cell pellets were homogenized in PBS at 4° C. using 50 strokes of a Dounce homogenizer For assay of retinol dehydrogenase activity, aliquots of unfractionated CHO cell homogenate were incubated with 10, μM retinol (either as the all-trans, 13-cis, or 9-cis isomer added in ethanol) and either 2 mM NAD+ or 2 mM NADP+ in 10 mM Hepes containing 150 mM KCl, 1 mM EDTA, and 10, μg/ml phosphotidyl choline at pH 8.0 and 37° C. for prechosen time intervals. The final assay volume was 0.6 ml. Assays were routinely carried out in amber glass tubes that had been flushed with N2 to shield the retinoids from both light and O2 All subsequent extractions and procedures were carried out in a manner that minimized exposure of the retinoids to light and O2.
Immediately following incubation, the assay mixture was denatured with an equal volume of absolute ethanol (0.6 ml), and the retinoids were extracted into 3 ml of HPLC grade hexane. Following one backwash of the hexane extract with 0.5 ml of deionized water, the hexane was evaporated to dryness under a gentle stream of N2, and the extracted retinoids were immediately redissolved in 120 μl of hexane and analyzed by normal phase HPLC (see below).
HPLC Procedures. Stereoisomers of both retinol and retinaldehyde were separated on a 4.6×250-mm Vydac 101HS54 silica column using hexane:n-propanol:1-octanol (98.9:1.0:0.1 v/v) flowing at 1.5 ml/min as the mobile phase. The running column was preceded by a silica guard column. Retinols and retinaldehydes were detected by UV absorbance at 350 nm. Retention times for all-trans-, 13-cis-, and 9-cis-retinols were established using purified compounds obtained as described above. Retention times for all-trans-, 13-cis-, and 9-cis-retinaldehyde were determined using commercial standards (Sigma). Quantities of each retinol and retinaldehyde isomer present in extracts were determined by comparisons of the integrated areas under the HPLC peaks with a standard curve constructed relating integrated peak area with known masses of each retinoid isomer. The concentrations of each retinoid isomer were determined by UV-visible spectrophotometry using published extinction coefficients for each retinol and retinaldehyde isomer (26).
(§1) Enzymatic Assays. Assays for human and mouse 9cRDH were carried out essentially as were described previously for human 9cRDH (19). For expression of mouse 9cRDH a cDNA clone obtained from a mouse liver cDNA library was employed (see below). Recombinant human or mouse 9cRDH expressed in CHO cells was incubated in an assay mixture containing 10 μM 9-cis-retinol (added in 0.02 mL ethanol) and 2 mM NAD in 10 mM Hepes, pH 8.0, containing 150 mM KCl, 1 mM EDTA, and 50 μg phosphotidyl choline for 15 min at 37° C. (final assay volume of 0.6 ml) with agitation. This assay mixture was used routinely to measure oxidation of 9-cis-retinol to 9-cis-retinaldehyde and in studies assessing oxidation of 11-cis-, 13-cis- and all-trans-retinol to their corresponding aldehydes. For some experiments, the ability of human or mouse 9cRDH to catalyze the reduction of 9-cis-, 11-cis-, 13-cis- or all-trans-retinaldehyde was assessed. To assess these reduction reactions, incubations were carried out in 100 mM sodium acetate, pH 5.0, containing 50 μg phosphotidyl choline and 2 mM NADH (or 2 mM NADPH) in a final volume of 0.6 ml for 15 min at 37° C.
(§2) Immediately following incubation of the assay, the assay mixture was denatured with an equal volume of absolute ethanol (0.6 ml), and the retinoids extracted into 2.5 ml of hexane. Following one backwash of the hexane extract with 0.5 ml of deionized water, the hexane was evaporated to dryness under a gentle stream of N2. The extracted retinoids were immediately redissolved in 120 μl of hexane and analyzed by normal phase HPLC as described below.

[2] = biological target: T2, mouse 9cRDH (m9cRDH) (Mus musculus, UniProt O55240); experiment: Retinol isomer oxidation by recombinant mouse 9cRDH; details: for m9cRDH specific activity, retinol oxidation: substrate 10 μM, 15 min, 150–180 μg protein/assay, NAD+
T2 sequence (O55240 1-318): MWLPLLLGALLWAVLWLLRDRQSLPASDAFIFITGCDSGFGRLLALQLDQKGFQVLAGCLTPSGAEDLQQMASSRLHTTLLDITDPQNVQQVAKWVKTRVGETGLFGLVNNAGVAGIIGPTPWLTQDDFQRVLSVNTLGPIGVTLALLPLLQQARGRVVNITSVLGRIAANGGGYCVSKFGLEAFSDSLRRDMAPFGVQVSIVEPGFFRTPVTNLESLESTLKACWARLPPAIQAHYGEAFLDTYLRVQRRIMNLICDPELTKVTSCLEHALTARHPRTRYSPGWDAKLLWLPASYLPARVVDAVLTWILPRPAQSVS
Method: as §1, §2

[3] = biological target: T3, mouse 9cRDH (Mus musculus, UniProt O55240); experiment: Inhibition of recombinant mouse 9cRDH activity (9-cis-retinol oxidation, CHO cell homogenate, HPLC); details: 10 μM 9-cis-retinol
T3 sequence (O55240 1-318): T2 sequence (O55240 1-318)

[4] = biological target: T4, human 9-cis retinol dehydrogenase (9cRDH) (Homo sapiens, UniProt Q92781); experiment: Inhibition of recombinant human 9cRDH activity (9-cis-retinol oxidation, CHO cell homogenate, HPLC); details: 10 μM 9-cis-retinol
T4 sequence (Q92781 1-318): T1 sequence (Q92781 1-318)

[5] = biological target: T1, human 9cRDH (h9cRDH); experiment: Retinaldehyde isomer reduction by recombinant human 9cRDH; details: for h9cRDH specific activity, retinaldehyde reduction: substrate 10 μM, 15 min, 150–180 μg protein/assay, NADH, pH 5.0
Method: as §1, §2

[6] = biological target: T2, mouse 9cRDH (m9cRDH); experiment: Retinaldehyde isomer reduction by recombinant mouse 9cRDH; details: for m9cRDH specific activity, retinaldehyde reduction: substrate 10 μM, 15 min, 150–180 μg protein/assay, NADH, pH 5.0
Method: as §1, §2

[7] = equimolar concentrations, any substrate

| Compound | h9cRDH specific activity, retinol oxidation [1] [pmol/min/mg protein] | m9cRDH specific activity, retinol oxidation [2] [pmol/min/mg protein] | h9cRDH specific activity, retinaldehyde reduction [5] [pmol/min/mg protein] | m9cRDH specific activity, retinaldehyde reduction [6] [pmol/min/mg protein] | other results |
| --- | --- | --- | --- | --- | --- |
| NC(=O)c1ccc[n+]([C@@H]2O[C@H](COP(=O)([O-])OP(=O)(O)OC[C@H]3O[C@@H](n4cnc5c(N)ncnc54)[C@H](OP(=O)(O)O)[C@@H]3O)[C@@H](O)[C@H]2O)c1 [NADP+] |  |  |  |  | cofactor activity relative to NAD+ for 9-cis-retinol oxidation ([1]; both at 2 mM): 8%; reaction rate supported relative to NAD+, human 9cRDH retinol oxidation [1, 7]: ≤ 10%; reaction rate supported relative to NAD+, mouse 9cRDH retinol oxidation [2, 7]: ≤ 10% |
| CC1=C(/C=C/C(C)=C/C=C/C(C)=C/CO)C(C)(C)CCC1 [all-trans Retinol, All-trans-retinol] | 0.5 | 0.6 |  |  | oxidation to the corresponding retinaldehyde by transfected CHO cell homogenate (in words) ([1]; 2 mM NAD+): unable to catalyze the oxidation; inhibition of mouse 9cRDH activity (in words) [3]: only very weak inhibitors; inhibition of human 9cRDH activity (in words) ([4]; listed as all-trans retinol): did not inhibit; inhibition of human 9cRDH activity (in words) ([4]; listed as all-trans-retinol): only very weak inhibitors; also recorded: did not inhibit |
| CC1=C(/C=C/C(C)=C/C=C\C(C)=C\C=O)C(C)(C)CCC1 [11-cis-retinaldehyde] |  |  | 1220 | 506 |  |
| CC1=C(/C=C/C(C)=C/C=C/C(C)=C\C=O)C(C)(C)CCC1 [13-cis-retinaldehyde] |  |  | 744 | 748 |  |
| CC1=C(/C=C/C(C)=C/C=C/C(C)=C/C=O)C(C)(C)CCC1 [all-trans-retinaldehyde] |  |  | 1.1 | 1.3 |  |
| NADPH |  |  |  |  | reaction rate supported relative to NADH, human 9cRDH retinaldehyde reduction [5, 7]: ≤ 10%; reaction rate supported relative to NADH, mouse 9cRDH retinaldehyde reduction [6, 7]: ≤ 10% |

Continued, in another order:

| h9cRDH specific activity, retinol oxidation [1] [pmol/min/mg protein] | m9cRDH specific activity, retinol oxidation [2] [pmol/min/mg protein] | h9cRDH specific activity, retinaldehyde reduction [5] [pmol/min/mg protein] | m9cRDH specific activity, retinaldehyde reduction [6] [pmol/min/mg protein] | Compound | other results |
| --- | --- | --- | --- | --- | --- |
| 442 | 152 |  |  | CC1=C(/C=C/C(C)=C/C=C\C(C)=C\CO)C(C)(C)CCC1 [11-cis-retinol] |  |
| 0.3 | 2.0 |  |  | CC1=C(/C=C/C(C)=C/C=C/C(C)=C\CO)C(C)(C)CCC1 [13-cis-retinol] | rate of oxidation relative to that observed for 9-cis-retinol ([1]; first series, 2 mM NAD+, 10 μM retinol): 10% |
|  |  | 268 | 420 | CC1=C(/C=C/C(C)=C\C=C\C(C)=C\C=O)C(C)(C)CCC1 [9-cis-retinaldehyde] |  |
| 367 | 328 |  |  | CC1=C(/C=C/C(C)=C\C=C\C(C)=C\CO)C(C)(C)CCC1 [9-cis-retinol] | oxidation to the corresponding retinaldehyde by transfected CHO cell homogenate (in words) ([1]; 2 mM NAD+): avidly oxidized; share of the added retinol oxidized to retinaldehyde by CHO cell homogenate ([1]; in assay concentration 10 μM): Over 60%; rate of oxidation by mouse enzyme as multiple of the rate of 11-cis-retinol oxidation [2]: 2 times |
